Consider one molecule from US10725042B2, “Methods of diagnosing and treating cancer” (Case Western Reserve University, priority 2012, dated 2020).

One assay deals with H1975 66 shUNG cells. As to the kind of experiment: Colony survival assay, H1975 66 shUNG cells. It counts as cell-based, human. As to the method:
(§1) For cells in suspension, colony survival was determined by crystal violet staining of colonies formed after 10-day exposure of 5×10^3 cells to pemetrexed in soft agar. For adherent cells, colony survival was determined by methylene blue staining of colonies formed after 10-day exposure of 100 cells to pemetrexed in 6-well culture dishes. Only colonies containing ≥50 cells were counted. Data points represent percent of colonies relative to untreated control averaged over 3 experiments.
UNG directed shRNA and siRNA plasmids were purchased from Origene. Transfection was carried out according to manufacturer specifications. Stably transfected clones (shRNA) were selected with puromycin with subsequent expansion of a well-isolated colony of cells.

Assay [1] relates to AP sites in DNA of UDG−/− cells. The experiment in a line: AP site assay (ARP), UDG−/− cells. The format is cell-based, human. As to conditions: pemetrexed 0-400 nM, 24 hrs. As to the method:
(§2) The number of AP sites was measured using ARP (aldehyde reactive probe) reagent. The assay was performed as previously described. Briefly, cells (2×10^6) were collected after drug treatment and DNA was extracted. DNA (10 μg) was incubated with 15 μl of 1 mM ARP (Dojindo Laboratories, Kumamoto, Japan), and then precipitated and washed with ice-cold ethanol. The ARP-labeled DNA was then heat-denatured at 100° C. for 5 min, quickly chilled on ice and mixed with an equal volume of 2 M ammonium acetate. The DNA was then immobilized on a BA-S 85 nitrocellulose membrane (Schleicher and Schuell, Dassel, Germany) using a minifold II vacuum filter device (Schleicher and Schuell, Dassel, Germany). The membrane was incubated with 0.25% BSA-PBS containing streptavidin-conjugated horseradish peroxidase (BioGenex, SanRamon, Calif.) at room temperature for 40 min with gentle shaking. ARP-labeled AP sites were visualized by chemiluminescence (Amersham Corp, Piscataway, N.J.) followed by quantitative densitometry using NIH Image J software.

Assay [2] has as its system A549 lung cancer xenografts. As to the kind of experiment: A549 xenograft tumors in nude mice. The format is in vivo. As to conditions: A549 tumours; pemetrexed 150 mg/kg, MX 4 mg/kg, i.p. daily for 5 days. The method, then:
H460 or A549 tumor cells (5×10^6) were injected into bilateral flanks of female athymic NCr (nu/nu) mice (6 weeks old). When the tumor volumes reached 100-150 mm3, mice were divided into control and treatment groups (6-9 mice/group). Nude mice carrying tumors were treated with pemetrexed (150 mg/kg) alone, MX (4 mg/kg) alone or the combination of the two agents, by daily intraperitonial injection (i.p.) for 5 consecutive days. Tumor measurements were taken every 2 days. Tumor responses were quantified by tumor volume.

The test system of the next assay is UDG−/− cells. The experiment in a line: Replication foci stained with CldU and IdU, UDG−/− cells. It counts as cell-based, human. As to conditions: pemetrexed 25 nM, n=10 cells. As to the method:
DNA replication sites were visualized by incorporation of chlorodeoxyuridine (CldU) and iododeoxyuridine (IdU) into DNA. UDG^−/− and UDG^+/+ cells were labeled with 100 μM CldU (ICN, Irvine, Calif.) or IdU (Sigma Chemical Co., St. Louis, Mo.) for 45 min at different time intervals. Cells were washed with PBS, fixed with cold 70% ethanol, and stored at 4° C. For antibody staining, the ethanol was removed, and 100% methanol was added for 5 min. Cells were washed twice with PBS and incubated with 1.5 M HCl for 30 min to denature the DNA. Cells were washed with PBS, permeabilized with 0.5% Tween 20 in PBS for 5 min, and then incubated in 5% BSA (Sigma Chemical Co.) and in PBS for 20 min to reduce nonspecific binding. Primary antibodies CldU (rat anti-BrdU; Accurate Chemical and Science Co., Westbury, N.Y.) and IdU (mouse anti-BrdU; BD Biosciences) were diluted in 1% BSA buffer, added to the slides, and incubated in a humid environment for 2 hrs. Slides were washed with PBS-Tween 20 and then in a high-salt buffer (200 mM NaCl, 0.2% Tween 20, and 0.2% NP-40 in PBS) for 15 min. The samples were incubated with secondary antibodies for 1 h. Finally, slides were washed with PBSTween 20, mounted with Vectashield antifade mounting medium (Vector Laboratories, Inc., Burlingame, Calif.), and stored at 4° C. […] Fluorescence density of CldU or IdU was quantified by NIH image J software.

Another assay relates to DLD1/UDG+/+ cells. As to the kind of experiment: Cell cycle analysis, UDG+/+ cells. It counts as cell-based, human. As to conditions: pemetrexed 25 nM. The method, then:
For cell cycle analysis, 10^6 cells (DLD1/UDG^+/+ and DLD1/UDG^−/−) were plated in 100-mm tissue culture dishes and exposed to pemetrexed (25 nM). After 6, 24 and 72 h of culture, cells were fixed with 80% methanol and washed with ice-cold 1% BSA/PBS. DNA was stained with 20 μg/mL propidium iodide (Sigma-Aldrich) and 2.5 μg/mL of DNase-free RNase A (Roche). The DNA fluorescence of propidium iodide-stained cells was measured with an Elite ESP flow cytometer/cell sorter (Coulter, Miami, Fla.).

The next assay relates to A549 cells. As to the kind of experiment: Clonogenic survival assay, A549 cells (Example 1). As to conditions: Homo sapiens, read-out: IC50 values for pemetrexed. The format is cell-based. The method, then: (§3) Tumor cells (500-2000/dish) were plated and treated with pemetrexed (0-400 nM), 5-fluorouracil (0-20 μM), temozolomide (0-1500 μM), or cisplatin (0-40 μM). After 7 days, surviving colonies were stained with methylene blue for 30 min at room temperature and the colonies containing more than 50 cells were counted to generate survival curves.

Assay [3] deals with AP sites in DNA of UDG+/+ cells. As to the kind of experiment: AP site assay (ARP), UDG+/+ cells. The format is cell-based, human. As to conditions: pemetrexed 0-400 nM, 24 hrs. The method, then: as §2
Another assay concerns H460 cells. As to the kind of experiment: Clonogenic survival assay, H460 cells. It counts as cell-based. As to conditions: Homo sapiens, NCI-H460, read-out: IC50 values for pemetrexed. The method, then: as §3
For another assay, the system named is DLD1/UDG−/− cells. As to the kind of experiment: Colony survival (clonogenic) assay, UDG−/− cells. It counts as cell-based, human. As to the method:
Recombinant virus was grown in 293T cells and subsequently used to infect DLD1 cells. Selection of positively transfected clones was achieved by the addition of G418 to the culture medium. A second infection of transfected clones with Cre-recombinase adenovirus caused excision of the neomycin resistance cassette. Dflag cell line was produced by transfection of UDG expression vector in UDG^−/− cells to restore UDG activity.
as §3

In another assay the test system is H1975 cells. As to the kind of experiment: Colony survival assay, H1975 parental cells. The format is cell-based. The note with it: Homo sapiens, NCI-H1975, read-out: pemetrexed IC50. As to the method: as §1

The structures appear in SMILES notation.

What is called IC50 is the concentration that inhibits the measured activity by half. In the case of `Nc1nc2[nH]cc(CCc3ccc(C(=O)N[C@@H](CCC(=O)O)C(=O)O)cc3)c2c(=O)[nH]1` [pemetrexed], the “sensitivity of shRNA targeted H1975 clones compared to parental cells” value in the assay on H1975 66 shUNG cells (H1975 shUNG clones vs parental) is above 5 fold. The IC50 amounted to 0.131 µM in the assay with H1975 66 shUNG cells (Homo sapiens, NCI-H1975, H1975 66 shUNG, colony survival, read-out: pemetrexed IC50); 1.2 µM in the assay on A549 cells; 0.11 µM in the assay with H460 cells; 0.02 µM in the assay with DLD1/UDG−/− cells (Homo sapiens, DLD-1, UDG−/− cells, interpolated from dose-response survival curves, read-out: IC50 value for pemetrexed); 0.777 µM in the assay on H1975 cells. Besides, the “AP sites in DNA” value is on record as “lack of detectable AP sites” in assay [1] and “dose-dependent formation of AP sites” in [3]. Also, the antitumour activity entry in [2] is “moderately sensitive”. The “ratio of IdU to CldU (fluorescence density)” value in the assay with UDG−/− cells (6-hr sample) turned out to be 0.1±0.04; in the assay with UDG−/− cells (18-hr sample), 0.01±0.005. Also, the “cells transiently arrested in S-phase” value in the assay on DLD1/UDG+/+ cells (24 hr (untreated 17%)) came out at 21%. The “cells in the subG1 compartment” value in the assay on DLD1/UDG+/+ cells (72 hr) is listed as 6%. In the assay on DLD1/UDG−/− cells (UDG−/− vs UDG+/+), the “sensitivity of UDG−/− cells relative to UDG+/+ cells” value is recorded as 10 times.
